Laboratory results from US12077503B2, “Substituted cyclic amides and their use as herbicides” (FMC CORPORATION, priority 2015, dated 2024).

How the values were obtained:
Type in all cases: in vivo
[1] = tested on: Kochia (Kochia scoparia); assay: Test A preemergence; conditions: Bassia scoparia, pre-emergence, 240 h, 0 to 100 scale where 0 is no effect and 100 is complete control, read-out: Kochia plant response rating
Outline: (§1)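 Preemergence soil spray on seeded pots or post-emergence spray on 1–2 leaf plants, in loam–sand blend. Greenhouse ~10 d. Visual rating 0–100 against untreated plants.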

[2] = tested on: barnyardgrass (Echinochloa crus-galli); assay: Test A preemergence; conditions: Echinochloa crus-galli, pre-emergence, 240 h, 0 to 100 scale where 0 is no effect and 100 is complete control, read-out: Barnyardgrass plant response rating
Outline: as §1

[3] = tested on: giant foxtail (Setaria faberii); assay: Test A preemergence; conditions: Setaria faberi, pre-emergence, 240 h, 0 to 100 scale where 0 is no effect and 100 is complete control, read-out: Foxtail, Giant plant response rating
Outline: as §1

[4] = tested on: pigweed (Amaranthus retroflexus); assay: Test A preemergence; conditions: Amaranthus retroflexus, pre-emergence, 240 h, 0 to 100 scale where 0 is no effect and 100 is complete control, read-out: Pigweed plant response rating
[5] = tested on: ragweed (common ragweed, Ambrosia elatior); assay: Test A preemergence; conditions: Ambrosia artemisiifolia, pre-emergence, 240 h, 0 to 100 scale where 0 is no effect and 100 is complete control, read-out: Ragweed plant response rating
Outline: as §1

[6] = tested on: ryegrass, Italian (Italian ryegrass, Lolium multiflorum); assay: Test A preemergence; conditions: Lolium multiflorum, pre-emergence, 240 h, 0 to 100 scale where 0 is no effect and 100 is complete control, read-out: Ryegrass, Italian plant response rating
Outline: as §1

[7] = tested on: Galium (catchweed bedstraw, Galium aparine); assay: Test A postemergence; conditions: Galium, post-emergence, 240 h
Outline: as §1

[8] = tested on: Kochia (Kochia scoparia); assay: Test A postemergence; conditions: Bassia scoparia, post-emergence, 240 h
Outline: as §1

[9] = tested on: barnyardgrass (Echinochloa crus-galli); assay: Test A postemergence; conditions: Echinochloa crus-galli, post-emergence, 240 h
Outline: as §1

[10] = tested on: blackgrass (Alopecurus myosuroides); assay: Test A postemergence; conditions: Alopecurus myosuroides, post-emergence, 240 h
Outline: as §1

[11] = tested on: corn (Zea mays); assay: Test A postemergence; conditions: Zea mays, post-emergence, 240 h
Outline: as §1

[12] = tested on: giant foxtail (Setaria faberii); assay: Test A postemergence; conditions: Setaria faberi, post-emergence, 240 h
Outline: as §1

[13] = tested on: pigweed (Amaranthus retroflexus); assay: Test A postemergence; conditions: Amaranthus retroflexus, post-emergence, 240 h, 125 g ai/ha, postemergence, visual injury vs untreated controls after approx. 10 d; 0 = no effect, 100 = complete control; read-out: Pigweed plant response rating (0 to 100 scale)
Outline: as §1

[14] = tested on: ragweed (common ragweed, Ambrosia elatior); assay: Test A postemergence; conditions: Ambrosia artemisiifolia, post-emergence, 240 h, 125 g ai/ha, postemergence, visual injury vs untreated controls after approx. 10 d; 0 = no effect, 100 = complete control; read-out: Ragweed plant response rating (0 to 100 scale)
Outline: as §1

[15] = tested on: ryegrass, Italian (Italian ryegrass, Lolium multiflorum); assay: Test A postemergence; conditions: Lolium multiflorum, post-emergence, 240 h, 125 g ai/ha, postemergence, visual injury vs untreated controls after approx. 10 d; 0 = no effect, 100 = complete control; read-out: Ryegrass, Italian plant response rating (0 to 100 scale)
Outline: as §1

[16] = tested on: wheat (Triticum aestivum); assay: Test A postemergence; conditions: Triticum aestivum, post-emergence, 240 h, 125 g ai/ha, postemergence, visual injury vs untreated controls after approx. 10 d; 0 = no effect, 100 = complete control; read-out: Wheat plant response rating (0 to 100 scale)
Outline: as §1

[17] = tested on: barnyardgrass (Echinochloa crus-galli); assay: Test B flooded paddy test; conditions: Echinochloa crus-galli, 250 g ai/ha, Flood; 0 to 100 scale where 0 is no effect and 100 is complete control; read-out: Barnyardgrass plant response rating
Outline: (§2)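 Compound goes directly into floodwater once pots are flooded 3 cm above soil, targeting plants at two leaves; the water depth is then held for the test duration. Plants sit 13–15 d in a greenhouse and are rated visually, 100 denoting complete control.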

[18] = tested on: ducksalad (Heteranthera limosa); assay: Test B flooded paddy test; conditions: Heteranthera limosa, 250 g ai/ha, Flood; 0 to 100 scale where 0 is no effect and 100 is complete control; read-out: Ducksalad plant response rating
Outline: as §2

[19] = tested on: rice (Oryra sativa); assay: Test B flooded paddy test; conditions: Oryza sativa, 250 g ai/ha, Flood; 0 to 100 scale where 0 is no effect and 100 is complete control; read-out: Rice plant response rating
Outline: as §2

[20] = tested on: sedge, umbrella (small-flower umbrella sedge, Cyperus difformis); assay: Test B flooded paddy test; conditions: Cyperus difformis, 250 g ai/ha, Flood; 0 to 100 scale where 0 is no effect and 100 is complete control; read-out: Sedge, Umbrella plant response rating
Outline: as §2

[21] = 125 g ai/ha, preemergence, approx. 10 d

## CON1CC[C@H](c2cccc(C(F)(F)F)c2)[C@@H](C(=O)Nc2cccc(F)c2F)C1=O [Compound 1169]
[1]; 31 g ai/ha, Preemergence
  pest or weed control at 31 g/ha: 30%
[1]; [21]
  pest or weed control at 125 g/ha: 30%
[2]; 31 g ai/ha, Preemergence
  pest or weed control at 31 g/ha: 70%
[2]; [21]
  pest or weed control at 125 g/ha: 90%
[3]; 31 g ai/ha, Preemergence
  pest or weed control at 31 g/ha: 70%
[3]; [21]
  pest or weed control at 125 g/ha: 90%
[4]; 31 g ai/ha, Preemergence
  pest or weed control at 31 g/ha: 0%
[4]; [21]
  pest or weed control at 125 g/ha: 0%
[5]; 31 g ai/ha, Preemergence
  pest or weed control at 31 g/ha: 0%
[5]; [21]
  pest or weed control at 125 g/ha: 0%
[6]; 31 g ai/ha, Preemergence
  pest or weed control at 31 g/ha: 0%
[6]; [21]
  pest or weed control at 125 g/ha: 0%
[7]; 125 g ai/ha, postemergence, visual injury vs untreated controls after approx. 10 d, 0 = no effect, 100 = complete control, read-out: Galium plant response rating (0 to 100 scale)
  pest or weed control at 125 g/ha: 0%
[7]; Postemergence, 31 g ai/ha, visual injury after approx. 10 d, 0 to 100 scale, 0 no effect, 100 complete control, read-out: Plant response rating, Galium
  pest or weed control at 31 g/ha: 0%
[8]; 125 g ai/ha, postemergence, visual injury vs untreated controls after approx. 10 d, 0 = no effect, 100 = complete control, read-out: Kochia plant response rating (0 to 100 scale)
  pest or weed control at 125 g/ha: 20%
[8]; Postemergence, 31 g ai/ha, visual injury after approx. 10 d, 0 to 100 scale, 0 no effect, 100 complete control, read-out: Plant response rating, Kochia
  pest or weed control at 31 g/ha: 0%
[9]; 125 g ai/ha, postemergence, visual injury vs untreated controls after approx. 10 d, 0 = no effect, 100 = complete control, read-out: Barnyardgrass plant response rating (0 to 100 scale)
  pest or weed control at 125 g/ha: 80%
[9]; Postemergence, 31 g ai/ha, visual injury after approx. 10 d, 0 to 100 scale, 0 no effect, 100 complete control, read-out: Plant response rating, Barnyardgrass
  pest or weed control at 31 g/ha: 30%
[10]; 125 g ai/ha, postemergence, visual injury vs untreated controls after approx. 10 d, 0 = no effect, 100 = complete control, read-out: Blackgrass plant response rating (0 to 100 scale)
  pest or weed control at 125 g/ha: 0%
[10]; Postemergence, 31 g ai/ha, visual injury after approx. 10 d, 0 to 100 scale, 0 no effect, 100 complete control, read-out: Plant response rating, Blackgrass
  pest or weed control at 31 g/ha: 0%
[11]; 125 g ai/ha, postemergence, visual injury vs untreated controls after approx. 10 d, 0 = no effect, 100 = complete control, read-out: Corn plant response rating (0 to 100 scale)
  plant injury at 125 g/ha: 0%
[11]; Postemergence, 31 g ai/ha, visual injury after approx. 10 d, 0 to 100 scale, 0 no effect, 100 complete control
  Corn plant response rating (crop injury, 0 = no effect, 100 = complete kill) at 31 g/ha: 0%
[12]; 125 g ai/ha, postemergence, visual injury vs untreated controls after approx. 10 d, 0 = no effect, 100 = complete control, read-out: Foxtail, Giant plant response rating (0 to 100 scale)
  pest or weed control at 125 g/ha: 70%
[12]; Postemergence, 31 g ai/ha, visual injury after approx. 10 d, 0 to 100 scale, 0 no effect, 100 complete control, read-out: Plant response rating, Foxtail, Giant
  pest or weed control at 31 g/ha: 30%
[13]
  pest or weed control at 125 g/ha: 0%
[14]
  pest or weed control at 125 g/ha: 0%
[15]
  pest or weed control at 125 g/ha: 0%
[16]
  plant injury at 125 g/ha: 0%
[17]
  pest or weed control at 250 g/ha: 0%
[18]
  pest or weed control at 250 g/ha: 0%
[19]
  pest or weed control at 250 g/ha: 0%
[20]
  pest or weed control at 250 g/ha: 0%
